Data: PubChem BioAssay (NCI)
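Interpolation was linear, between the two tested concentrations surrounding the appropriate level; five concentrations were tested over 48 hours in 96-well plates. GI50 marks 50% less growth. TGI denotes the concentration required for complete inhibition of growth.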

Legend:
Test in all cases: NCI-60 cell line screen, 48 h
[1] = tested on: MDA-MB-468 breast
[2] = tested on: 786-0 renal
[3] = tested on: A498 renal
[4] = tested on: A549 NSCLC
[5] = tested on: ACHN renal
[6] = tested on: BT-549 breast
[7] = tested on: CAKI-1 renal
[8] = tested on: CCRF-CEM leukemia
[9] = tested on: COLO 205 colon
[10] = tested on: DU-145 prostate
[11] = tested on: EKVX NSCLC
[12] = tested on: HCC-2998 colon
[13] = tested on: HCT-116 colon
[14] = tested on: HCT-15 colon
[15] = tested on: HL-60(TB) leukemia
[16] = tested on: HOP-62 NSCLC
[17] = tested on: HOP-92 NSCLC
[18] = tested on: HS 578T breast
[19] = tested on: HT29 colon
[20] = tested on: IGROV1 ovarian
[21] = tested on: K-562 leukemia
[22] = tested on: KM12 colon
[23] = tested on: LOX IMVI melanoma
[24] = tested on: M14 melanoma
[25] = tested on: MALME-3M melanoma
[26] = tested on: MCF7 breast
[27] = tested on: MDA-MB-231 breast
[28] = tested on: MDA-MB-435
[29] = tested on: MOLT-4 leukemia
[30] = tested on: NCI-H226 lung
[31] = tested on: NCI-H23 lung
[32] = tested on: NCI-H460 lung
[33] = tested on: NCI-H522 lung
[34] = tested on: OVCAR-3 ovarian
[35] = tested on: OVCAR-4 ovarian
[36] = tested on: OVCAR-5 ovarian
[37] = tested on: OVCAR-8 ovarian
[38] = tested on: PC-3 prostate
[39] = tested on: RPMI-8226 leukemia
[40] = tested on: RXF 393 renal
[41] = tested on: SF-268 CNS
[42] = tested on: SF-295 CNS
[43] = tested on: SF-539 CNS
[44] = tested on: SK-MEL-2 melanoma
[45] = tested on: SK-MEL-28 melanoma
[46] = tested on: SK-MEL-5 melanoma
[47] = tested on: SK-OV-3 ovarian
[48] = tested on: SN12C renal
[49] = tested on: SNB-19 CNS
[50] = tested on: SNB-75 CNS
[51] = tested on: SR leukemia
[52] = tested on: SW-620 colon
[53] = tested on: T-47D breast
[54] = tested on: TK-10 renal
[55] = tested on: U251 CNS
[56] = tested on: UACC-257 melanoma
[57] = tested on: UACC-62 melanoma
[58] = tested on: UO-31 renal

For `CN1CCN(c2nc(-c3ccncc3)nc3sc4c(c23)CCCCCC4)CC1`, the GI50 [1] was 5.2 µM and the TGI [1] was 20.2 µM.

With `Cc1cc(C(O)CN(C)C)cc2c1ccc1cc(C(C)C)ccc12` (stereo not given) the GI50 [1] was 1.85 µM and the TGI [1] was 3.47 µM.

`CC1COCC(C)N1C1=C(Cl)C(=O)c2ccccc2C1=O` (stereo not given) gave a GI50 [1] of 1.59 µM and a TGI [1] of 3.28 µM.

For `Nc1[nH]c(=O)ncc1CO`, the GI50 [1] was > 100 µM and the TGI [1] was > 100 µM.

Compound `O=C(Nc1ccccc1C(=O)N/N=C(\c1ccccc1)c1ccccn1)c1ccc(F)cc1` has a GI50 [1] of 0.192 µM and a TGI [1] of 1.11 µM.

For `COc1ccc(CCc2cc(OC)c(OC)c(OC)c2)cc1`, the GI50 [1] was 0.0599 µM and the TGI [1] was > 100 µM.

`CC1(C)OC2C(COS(N)(=O)=O)SC(n3cnc4cncnc43)C2O1` (stereo not given) was tested, and the GI50 [1] was > 100 µM and the TGI [1] was > 100 µM.

For `O=C(c1ccc(Cl)cc1)C1[C@H](c2ccc(Br)cc2)[C@@H](c2ccccc2)NC12C(=O)Nc1ccc(Cl)cc12` (stereo not given in full), the GI50 [2] was 0.905 µM, the TGI [2] was 1.89 µM and the GI50 [3] was 7.48 µM. It also gave a TGI [3] of 15 µM, a GI50 [4] of 2.31 µM and a TGI [4] of 9.53 µM. For the same compound, the GI50 [5] was 2.17 µM, the TGI [5] was 8.6 µM and the GI50 [6] was 2.71 µM. For the same compound, the TGI [6] was 9.33 µM, the GI50 [7] was 1.42 µM and the TGI [7] was 8.42 µM. For the same compound, the GI50 [8] was 2.79 µM, the TGI [8] was 13 µM and the GI50 [9] was 5.85 µM. For the same compound, the TGI [9] was 14.2 µM, the GI50 [10] was 5.9 µM and the TGI [10] was 13.6 µM. It also gave a GI50 [11] of 4.03 µM, a TGI [11] of 11.7 µM and a GI50 [12] of 1.63 µM. It also gave a TGI [12] of 7.02 µM, a GI50 [13] of 0.986 µM and a TGI [13] of 3.01 µM. The GI50 [14] was 2.15 µM, the TGI [14] was 8.97 µM and the GI50 [15] was 4.65 µM. The TGI [15] was 16.7 µM, the GI50 [16] was 6.07 µM and the TGI [16] was 13.1 µM. It also gave a GI50 [17] of 2.3 µM, a TGI [17] of 9.31 µM and a GI50 [18] of 6.82 µM. The TGI [18] was 23 µM, the GI50 [19] was 1.14 µM and the TGI [19] was 3.22 µM. For the same compound, the GI50 [20] was 2.76 µM, the TGI [20] was 9.96 µM and the GI50 [21] was 1.64 µM. For the same compound, the TGI [21] was 11.7 µM, the GI50 [22] was 2.17 µM and the TGI [22] was 9.98 µM. For the same compound, the GI50 [23] was 1.83 µM, the TGI [23] was 10.1 µM and the GI50 [24] was 2.06 µM. For the same compound, the TGI [24] was 8.82 µM, the GI50 [25] was 7.09 µM and the TGI [25] was 13.9 µM. For the same compound, the GI50 [26] was 1.69 µM, the TGI [26] was 6.82 µM and the GI50 [27] was 4.63 µM. It also gave a TGI [27] of 11.3 µM, a GI50 [28] of 2.81 µM and a TGI [28] of 9.75 µM. It also gave a GI50 [1] of 3.54 µM, a TGI [1] of 11.4 µM and a GI50 [29] of 1.64 µM. For the same compound, the TGI [29] was 8.26 µM, the GI50 [30] was 5.3 µM and the TGI [30] was 12.2 µM. For the same compound, the GI50 [31] was 3.98 µM, the TGI [31] was 11.7 µM and the GI50 [32] was 1.66 µM. The TGI [32] was 7.49 µM, the GI50 [33] was 4.22 µM and the TGI [33] was 11.8 µM. The GI50 [34] was 4.02 µM, the TGI [34] was 11 µM and the GI50 [35] was 3.65 µM. For the same compound, the TGI [35] was 11.9 µM, the GI50 [36] was 5.95 µM and the TGI [36] was 12.6 µM. The GI50 [37] was 5.46 µM, the TGI [37] was 12.8 µM and the GI50 [38] was 2.03 µM. It also gave a TGI [38] of 9.08 µM, a GI50 [39] of 1.99 µM and a TGI [39] of 13.2 µM. For the same compound, the GI50 [40] was 2.09 µM, the TGI [40] was 9.12 µM and the GI50 [41] was 2.88 µM. The TGI [41] was 11.2 µM, the GI50 [42] was 2.75 µM and the TGI [42] was 10.1 µM. For the same compound, the GI50 [43] was 6.41 µM, the TGI [43] was 13.1 µM and the GI50 [44] was 5.51 µM. For the same compound, the TGI [44] was 12.1 µM, the GI50 [45] was 5.78 µM and the TGI [45] was 12.2 µM. For the same compound, the GI50 [46] was 7.68 µM, the TGI [46] was 15 µM and the GI50 [47] was 7.36 µM. It also gave a TGI [47] of 17.3 µM, a GI50 [48] of 1.88 µM and a TGI [48] of 7.17 µM. For the same compound, the GI50 [49] was 5.97 µM, the TGI [49] was 13.2 µM and the GI50 [50] was 2.45 µM. It also gave a TGI [50] of 11.6 µM, a GI50 [51] of 1.63 µM and a TGI [51] of 9.55 µM. It also gave a GI50 [52] of 3.35 µM, a TGI [52] of 10.7 µM and a GI50 [53] of 2.13 µM. It also gave a TGI [53] of 9.66 µM, a GI50 [54] of 5.49 µM and a TGI [54] of 12.2 µM. For the same compound, the GI50 [55] was 3.58 µM, the TGI [55] was 10.7 µM and the GI50 [56] was 6.03 µM. For the same compound, the TGI [56] was 12.8 µM, the GI50 [57] was 2.21 µM and the TGI [57] was 9.1 µM. For the same compound, the GI50 [58] was 1.87 µM and the TGI [58] was 8.68 µM.
